Reference: ChEMBL document CHEMBL1201862, “PubChem BioAssay data set” (2004)
Values belong to the compound of their own block, whether it stands above or below them. Active and inactive are the calls of the source.

Columns and labels:
[1] = NIH-3T3 fibroblast cytotoxicity, dose response, cytotoxicity control, cell-based, fluorescence, Alamar Blue, secondary assay (AID 2327); type: functional;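 note: NIH-3T3 mouse fibroblasts cultured with fluconazole at 8 µg/mL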
[2] = fluconazole-exposed Candida albicans growth modulators – fluorescence, retest, confirmation (AID 2467); type: functional, cell-based
[3] = target: FAD-linked sulfhydryl oxidase ALR (Homo sapiens, UniProt P55789); experiment: ALR-catalysed DTT oxidation blockers – biochemical, H2O2 detection, luminescence, cherry-pick, dose response (AID 493248)
Chain of FAD-linked sulfhydryl oxidase ALR (P55789 whole entry): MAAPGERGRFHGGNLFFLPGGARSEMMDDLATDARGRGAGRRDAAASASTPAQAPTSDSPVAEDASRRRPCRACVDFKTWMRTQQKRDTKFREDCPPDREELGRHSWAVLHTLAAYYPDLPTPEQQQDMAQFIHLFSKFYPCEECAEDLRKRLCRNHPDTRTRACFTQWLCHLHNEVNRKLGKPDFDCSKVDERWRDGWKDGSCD

[4] = target: T1, Calpain-2 catalytic subunit (Sus scrofa, UniProt P43367); experiment: m-calpain protease blockers, concentration series – biochemical, fluorogenic peptide substrate, dose response (AID 1420); type: functional
T1 sequence (P43367 whole entry): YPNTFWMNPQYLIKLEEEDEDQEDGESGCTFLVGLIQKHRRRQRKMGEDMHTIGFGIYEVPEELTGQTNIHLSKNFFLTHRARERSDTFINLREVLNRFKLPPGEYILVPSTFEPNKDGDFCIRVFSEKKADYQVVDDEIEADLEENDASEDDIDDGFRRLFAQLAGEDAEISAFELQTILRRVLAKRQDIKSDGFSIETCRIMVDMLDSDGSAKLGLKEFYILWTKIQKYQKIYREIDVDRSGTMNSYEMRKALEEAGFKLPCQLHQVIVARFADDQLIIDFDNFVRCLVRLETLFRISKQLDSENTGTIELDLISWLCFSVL

[5] = target: T2, Heat shock factor protein 1 (Mus musculus, UniProt P38532); experiment: enhancement of HSF1-driven luciferase signal – cell-based, NIH3T3, luminescence, dose retest, confirmation (AID 435004); type: functional;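 note: stress induced by proteasome inhibitor MG132 added 30 min after compound; luciferase reporter driven by HSF1 response element in NIH3T3 cells; actives raise luminescence as potentiators of the MG132 stress response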
T2 sequence (P38532 whole entry): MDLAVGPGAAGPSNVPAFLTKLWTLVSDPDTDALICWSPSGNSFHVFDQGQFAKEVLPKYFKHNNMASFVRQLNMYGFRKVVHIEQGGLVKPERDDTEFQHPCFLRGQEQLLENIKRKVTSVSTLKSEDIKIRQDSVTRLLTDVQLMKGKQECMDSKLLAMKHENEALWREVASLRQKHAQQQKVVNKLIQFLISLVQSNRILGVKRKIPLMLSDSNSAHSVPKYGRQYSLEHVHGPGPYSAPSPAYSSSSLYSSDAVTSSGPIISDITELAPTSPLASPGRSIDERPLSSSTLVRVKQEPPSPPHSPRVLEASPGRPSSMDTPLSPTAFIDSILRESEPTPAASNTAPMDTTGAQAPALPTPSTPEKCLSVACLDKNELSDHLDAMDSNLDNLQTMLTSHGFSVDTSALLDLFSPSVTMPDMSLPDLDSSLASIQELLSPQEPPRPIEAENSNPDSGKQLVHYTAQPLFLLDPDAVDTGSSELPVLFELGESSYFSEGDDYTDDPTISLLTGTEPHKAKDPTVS

[6] = target: T3, RNA-binding protein pos-1 (Caenorhabditis elegans, UniProt G5EF15); experiment: disruptors of C. elegans POS-1 RNA interaction – biochemical, fluorescence polarization, dose response (AID 1964);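 note: purified POS-1 fused to maltose binding protein made in E. coli; potency of compounds blocking POS-1 binding to fluorescent RNA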
T3 sequence (G5EF15 whole entry): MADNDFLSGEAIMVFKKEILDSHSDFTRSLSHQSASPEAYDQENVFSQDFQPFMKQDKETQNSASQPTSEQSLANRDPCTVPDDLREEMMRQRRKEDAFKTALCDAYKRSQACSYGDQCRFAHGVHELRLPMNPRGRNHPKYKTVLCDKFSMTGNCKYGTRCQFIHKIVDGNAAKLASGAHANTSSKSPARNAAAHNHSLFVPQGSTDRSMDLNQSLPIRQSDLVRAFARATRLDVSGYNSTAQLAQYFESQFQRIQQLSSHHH

[7] = target: T4, Zinc finger protein mex-5 (Caenorhabditis elegans, UniProt Q9XUB2); experiment: potency of MEX-5 RNA-binding blockers – biochemical, C. elegans, fluorescence polarization, dose response (AID 1960)
T4 sequence (Q9XUB2 whole entry): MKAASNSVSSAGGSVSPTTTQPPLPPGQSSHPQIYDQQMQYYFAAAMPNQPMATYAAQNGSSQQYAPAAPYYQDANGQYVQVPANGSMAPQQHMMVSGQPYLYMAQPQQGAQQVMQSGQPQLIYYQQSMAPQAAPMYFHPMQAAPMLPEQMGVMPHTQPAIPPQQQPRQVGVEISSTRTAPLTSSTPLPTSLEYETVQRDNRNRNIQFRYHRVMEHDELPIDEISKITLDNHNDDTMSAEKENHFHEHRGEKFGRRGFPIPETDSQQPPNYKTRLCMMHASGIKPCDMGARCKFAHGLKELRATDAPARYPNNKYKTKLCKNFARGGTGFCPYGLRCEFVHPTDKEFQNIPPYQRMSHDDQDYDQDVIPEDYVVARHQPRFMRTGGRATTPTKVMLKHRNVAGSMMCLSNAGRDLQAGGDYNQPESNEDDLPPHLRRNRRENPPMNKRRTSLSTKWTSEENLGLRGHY

[8] = target: T5, Corticotropin-releasing factor receptor 2/Corticotropin-releasing factor-binding protein (Homo sapiens, UniProt P24387+Q13324); experiment: activators of CRF receptor 2 with binding protein – uHTS hits, confirmation (AID 602473); type: functional; settings: read-out: EC50_Mean
T5 sequence (Q13324 whole entry): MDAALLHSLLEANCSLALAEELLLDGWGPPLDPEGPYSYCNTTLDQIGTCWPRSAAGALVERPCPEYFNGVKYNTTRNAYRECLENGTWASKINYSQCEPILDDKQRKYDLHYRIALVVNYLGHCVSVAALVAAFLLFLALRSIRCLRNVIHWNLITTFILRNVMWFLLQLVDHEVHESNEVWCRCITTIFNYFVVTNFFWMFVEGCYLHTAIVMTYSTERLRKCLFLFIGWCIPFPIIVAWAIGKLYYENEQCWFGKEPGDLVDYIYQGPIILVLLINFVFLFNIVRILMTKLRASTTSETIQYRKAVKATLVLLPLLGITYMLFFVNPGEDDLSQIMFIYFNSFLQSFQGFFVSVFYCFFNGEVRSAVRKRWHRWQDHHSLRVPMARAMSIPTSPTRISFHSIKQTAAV
T5 sequence (P24387 whole entry): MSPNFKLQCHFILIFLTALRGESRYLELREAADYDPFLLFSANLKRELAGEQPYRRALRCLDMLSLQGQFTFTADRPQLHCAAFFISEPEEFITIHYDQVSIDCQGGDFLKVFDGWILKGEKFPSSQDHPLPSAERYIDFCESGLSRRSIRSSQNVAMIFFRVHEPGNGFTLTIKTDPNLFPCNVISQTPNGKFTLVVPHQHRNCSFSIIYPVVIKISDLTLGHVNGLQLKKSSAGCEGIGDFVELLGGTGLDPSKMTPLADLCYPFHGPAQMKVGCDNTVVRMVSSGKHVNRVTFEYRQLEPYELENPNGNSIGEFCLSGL

[9] = target: T5, Corticotropin-releasing factor receptor 2/Corticotropin-releasing factor-binding protein; experiment: Dose Response confirmation of uHTS hits for small molecule antagonists of the CRF-binding protein and CRF-R2 receptor complex.; type: functional; settings: read-out: IC50_Mean
[10] = Luminescence Cell-Based Dose Retest to Confirm Inhibitors of Cancer Stem Cells. [Related pubchem assays (depositor defined):AID2717, AID2721]; type: functional; settings: Homo sapiens
[11] = target: T6, Polyadenylate-binding protein 1 (Homo sapiens, UniProt P11940); experiment: MLLE domain peptide-binding blockers, IC50 – biochemical, fluorescence polarization, FITC-PAM2 peptide, dose response (AID 602259); type: functional; settings: read-out: IC50_Mean
T6 sequence (P11940 whole entry, the tested form may be a part): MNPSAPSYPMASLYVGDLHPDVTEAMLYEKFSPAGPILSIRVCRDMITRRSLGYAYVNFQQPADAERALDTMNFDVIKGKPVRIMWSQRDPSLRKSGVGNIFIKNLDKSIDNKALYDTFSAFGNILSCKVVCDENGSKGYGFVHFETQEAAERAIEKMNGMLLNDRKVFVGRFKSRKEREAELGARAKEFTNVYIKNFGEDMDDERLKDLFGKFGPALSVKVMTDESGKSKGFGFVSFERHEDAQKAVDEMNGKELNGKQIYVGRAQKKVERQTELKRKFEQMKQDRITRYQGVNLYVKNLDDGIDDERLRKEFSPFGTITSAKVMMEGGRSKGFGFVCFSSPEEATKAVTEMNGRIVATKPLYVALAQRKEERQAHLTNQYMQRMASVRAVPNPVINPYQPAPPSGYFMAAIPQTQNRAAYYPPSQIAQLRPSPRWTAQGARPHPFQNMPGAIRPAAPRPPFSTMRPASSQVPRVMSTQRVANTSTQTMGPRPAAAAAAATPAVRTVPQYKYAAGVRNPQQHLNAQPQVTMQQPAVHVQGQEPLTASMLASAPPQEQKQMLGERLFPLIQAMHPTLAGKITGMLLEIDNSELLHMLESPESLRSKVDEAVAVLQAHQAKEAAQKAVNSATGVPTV

[12] = target: T6, Polyadenylate-binding protein 1; experiment: MLLE binding blockers, Cy5 peptide tracer – biochemical, fluorescence polarization, Cy5-PAM2 peptide, secondary, miRNA deadenylation inhibitor project, dose response (AID 602260); type: functional; settings: read-out: IC50_Mean

SMILES: CC(C)CCOC(=O)C1C(c2ccccc2)C(C(=O)O)C1c1ccccc1 (stereo not drawn)
EC50 [1]: > 160 µM (inconclusive) | EC50 [2]: 4.96 µM (active)

AC50 [3]: 1.67 µM (active) | IC50 [4]: 5.8 µM (not active)
SMILES: COc1ccc(N2CCN(C(c3cccs3)C(C)NS(C)(=O)=O)CC2)cc1 (stereo not drawn)

SMILES: COc1ccc(N(C(=O)Cn2nnc3ccccc32)C(C(=O)NC(C)(C)C)c2ccc(OC)c(O)c2)cc1 (stereo not drawn)
EC50 [1]: > 150 µM (inactive) | EC50 [2]: 1.62 µM (active)

EC50 [5]: > 260 µM (inactive)
SMILES: CS(=O)(=O)c1ccc(Cl)c(C(=O)NCC2CCCCC2)c1

SMILES: O=C(CCS(=O)(=O)Cc1ccccc1)Nc1nnc(C(F)(F)F)s1
EC50 [1]: > 160 µM (inactive) | EC50 [2]: 0.741 µM (active)

EC50 [6]: > 300 µM (not active) | EC50 [7]: > 300 µM (not active)
SMILES: N=C(N)NS(=O)(=O)c1ccc(NC(=S)NC(=O)/C=C/c2cccs2)cc1

EC50 [6]: > 300 µM (not active) | EC50 [7]: > 300 µM (not active)
SMILES: NC(=O)C1(N2CCCCC2)CCN(Cc2nc(-c3cccs3)no2)CC1

SMILES: CC(Oc1cc2oc(=O)c3c(c2cc1Cl)CCCC3)C(=O)NCc1ccncc1 (stereo not drawn)
EC50 [1]: > 150 µM (inactive) | EC50 [2]: > 38 µM (not active)

AC50 [3]: 0.41 µM (active) | EC50 [8]: > 53 µM (inactive) | IC50 [9]: > 47.1 µM (inactive)
SMILES: O=C(c1ccco1)N1CCN=C1SCc1ccccc1Cl

EC50 [5]: > 260 µM (inactive)
SMILES: CCCCCNC(=O)C1CCC(Cn2c(=S)[nH]c3ccccc3c2=O)CC1 (stereo not drawn)

SMILES: CC(=O)Nc1ccc(SC[C@H](C)CN2CC[C@H](C(C)(C)C)CCC2=O)cc1
AC50 [10]: 1.47 µM (active) | AC50 [3]: 0.687 µM (active) | IC50 [11]: > 66 µM (inactive) | IC50 [12]: > 66 µM (inactive)

EC50 [6]: 46.5 µM (active) | EC50 [7]: > 300 µM (not active)
SMILES: O=C(O)CCC(=O)N1N=C(c2cccs2)CC1c1cn(-c2ccccc2)nc1-c1ccccc1 (stereo not drawn)

AC50 [3]: 0.171 µM (active)
SMILES: CN(C)CCCSc1nc2ccccc2s1

EC50 [5]: > 260 µM (inactive)
SMILES: COc1ccc(S(=O)(=O)Nc2cc3c4c(oc3c3ccccc23)CCCC4=O)cc1

EC50 [5]: > 260 µM (inactive)
SMILES: COc1ccc(OC)c(NC(=O)CNC(c2ccccc2)c2ccccc2)c1
